Assay results: patent USRE48335E1, “Polymyxin derivatives as antimicrobial compounds” (priority 2014, dated 2020)
In brackets after ≈: the same amount, converted by molar mass. Where two headings read alike, the source gives them in different places. Positions of bridges follow the written chain, without caps; N, C: chain ends. Non-standard residues stand in square brackets, D forms with d. Residues, ends and D or L forms follow the SMILES beside them. *: point of attachment. Benzoyl(3,5-Cl2) = O=C(c1cc(Cl)cc(Cl)c1)*; X21 = O=C(c1ccc(C(F)(F)F)c(Cl)c1)*; X19 = Cc1cc(Cl)cc(C(=O)*)c1; Dab = NCC[C@H](N)C(=O)O; Abu = CC[C@H](N)C(=O)O; Dap = NC[C@H](N)C(=O)O

Columns and labels:
Enterobacter cloacae = test system: Enterobacter cloacae
Procedure, shortened: (§1)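 Broth microdilution MICs following CLSI standards in cation-adjusted Mueller-Hinton broth. Lipopeptides tested as TFA salts; polymyxin B sulphate served as control.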

Acinetobacter baumannii = test system: Acinetobacter baumannii
Procedure, shortened: as §1

Pseudomonas aeruginosa = test system: Pseudomonas aeruginosa
Procedure, shortened: as §1

Klebsiella pneumoniae = test system: Klebsiella pneumoniae
Procedure, shortened: as §1

P. aeruginosa ATCC 27853 = assay: In vivo efficacy in mouse blood infection model (neutropenic Swiss mice); details: compound, free base 4 mg/kg intravenously 2 h after inoculation, blood at 4 h
Experimental: P. aeruginosa ATCC 27853, A. baumannii ATCC 19606 and K. pneumoniae FADDI-KP032 were subcultured on nutrient agar plates. One colony of each bacterial strain was dispersed in 10-mL CAMHB and incubated overnight. On day 2, an aliquot (0.2 mL) of each overnight culture suspension was dispersed in 20-mL CAMHB and incubated for 1.5-2.5 h for production of early log-phase growth bacterial culture. The bacteria in the early log-phase growth suspension were concentrated by centrifugation (3,220 g for 10 min) and re-suspended in sterile 0.9% saline for inoculation into mice. The bacterial cell concentration (colony forming unit [CFU]/mL) in saline was estimated by determining the optical density (OD) of the suspension at 600 nm, and confirmed by plating the suspension on nutrient agar plates. Swiss mice (22 to 28 g) were rendered neutropenic by injecting two doses of cyclophosphamide intraperitoneally, −4 day (150 mg/kg) and −1 day (100 mg/kg) prior to inoculation. Bloodstream infection was established by injecting intravenously 50 μL of early log-phase bacterial suspension (10^8-10^9 CFU/mL). The exact injection volume for each bacterial suspension was calculated based upon the OD value of the bacterial suspension and the desired inoculum for each isolate.
Solutions for administration of colistin, polymyxin B or the compounds were prepared at a concentration of 1 mg (free base) per mL in sterile 0.9% saline. At 2 h after inoculation, a mouse in the treatment groups was injected intravenously with one of the above solutions at 4 μL/g body weight (BW) (i.e. free base 4 mg/kg BW), while the same volume of saline was injected into the control mice. At 0 h or at 4 h after the administration of antibacterial drug or saline (control), animals were euthanised by inhalation of overdose isoflurane. The skin on the chest and fore-paws of each animal was thoroughly cleansed with 70% ethanol and Betadine®. The blood was collected via cardiac puncture using a 1-mL syringe rinsed with heparin (5,000 IU/mL), diluted serially in sterile 0.9% saline and plated on nutrient agar plates using a spiral plater.
The agar plates were incubated at 37° C. overnight. The bacterial colonies on the plate were counted and CFU/mL of the blood was calculated. The log10 CFU/mL of blood in each mouse was calculated. The in vivo activity of the compounds against the bacteria was calculated as the difference of the log10 CFU/mL values between the treated mice and the control mice at 4 h (Δ log=log10 (treated)CFU/mL−log10 (control)CFU/mL).
Any compound showing a decrease in bacterial loading (Δ log) of ≥2 at 4 h is considered to have good in vivo efficacy in this initial screening model.

[1] = Enterobacter cloacae FADDI-EC001, broth microdilution in CAMHB
[2] = Enterobacter cloacae FADDI-EC003, broth microdilution in CAMHB
[3] = Enterobacter cloacae FADDI-EC006, broth microdilution in CAMHB
[4] = Acinetobacter baumannii ATCC 17978, broth microdilution in CAMHB
[5] = Acinetobacter baumannii ATCC 19606, broth microdilution in CAMHB
[6] = Acinetobacter baumannii FADDI-AB034, broth microdilution in CAMHB
[7] = Pseudomonas aeruginosa ATCC 27853, broth microdilution in CAMHB
[8] = Pseudomonas aeruginosa FADDI-PA022, broth microdilution in CAMHB
[9] = Pseudomonas aeruginosa FADDI-PA025, broth microdilution in CAMHB

SMILES | Minimum inhibitory concentration, Ec FADDI-EC001 (Enterobacter cloacae) [µg/mL] | Minimum inhibitory concentration, Ec FADDI-EC003 (Enterobacter cloacae) [µg/mL] | Minimum inhibitory concentration, Ec FADDI-EC006 (Enterobacter cloacae) [µg/mL] | MIC (Acinetobacter baumannii) [µg/mL] | Minimum inhibitory concentration, Ab A ATCC 17978 (Acinetobacter baumannii) [µg/mL] | Minimum inhibitory concentration, Ab ATCC 19606 (Acinetobacter baumannii) [µg/mL] | Minimum inhibitory concentration, Ab FADDI-AB034 (Acinetobacter baumannii) [µg/mL] | MIC (Pseudomonas aeruginosa) [µg/mL] | Minimum inhibitory concentration, Pa ATCC 27853 (Pseudomonas aeruginosa) [µg/mL] | Minimum inhibitory concentration, Pa FADDI-PA022 (Pseudomonas aeruginosa) [µg/mL] | Minimum inhibitory concentration, Pa FADDI-PA025 (Pseudomonas aeruginosa) [µg/mL] | MIC (Klebsiella pneumoniae) [µg/mL] | Δ log (Treated-Control at 4 h) (P. aeruginosa ATCC 27853) [log10 CFU/mL] | Minimum inhibitory concentration, Ec FADDI-EC001 (Enterobacter cloacae; [1]) [µg/mL] | Minimum inhibitory concentration, Ec FADDI-EC003 (Enterobacter cloacae; [2]) [µg/mL] | Minimum inhibitory concentration, Ec FADDI-EC006 (Enterobacter cloacae; [3]) [µg/mL] | MIC (Acinetobacter baumannii; A. baumannii ATCC 19606) [µg/mL] | Minimum inhibitory concentration, Ab A ATCC 17978 (Acinetobacter baumannii; [4]) [µg/mL] | Minimum inhibitory concentration, Ab ATCC 19606 (Acinetobacter baumannii; [5]) [µg/mL] | Minimum inhibitory concentration, Ab FADDI-AB034 (Acinetobacter baumannii; [6]) [µg/mL] | further results
CC[C@@H]1NC(=O)[C@@H](CC(C)C)NC(=O)[C@H](CCN)NC(=O)[C@@H](NC(=O)[C@H](CN)NC(=O)[C@@H](NC(=O)[C@H](CCN)NC(=O)c2cc(C)cc(Cl)c2)[C@@H](C)O)CCNC(=O)[C@H]([C@@H](C)O)NC(=O)[C@H](CCN)NC(=O)[C@H](CCN)NC1=O [Compound 114] (X19-[Dab]T[Dap][Dab][Dab][dL][Abu][Dab][Dab]T; lactam 4-C) | 0.25 (≈ 0.219 µM) | 0.25 (≈ 0.219 µM) | 0.25 (≈ 0.219 µM) | 2 (≈ 1.75 µM) | 0.5 (≈ 0.439 µM) | 2 (≈ 1.75 µM) | 0.5 (≈ 0.439 µM) | 0.5 (≈ 0.439 µM) | 0.5 (≈ 0.439 µM) | 1 (≈ 0.877 µM) | 1 (≈ 0.877 µM) | 0.25 (≈ 0.219 µM) | −2.57 | – | – | – | – | – | – | – | –
CC[C@@H]1NC(=O)[C@@H](CC(C)C)NC(=O)[C@H](CCN)NC(=O)[C@@H](NC(=O)[C@H](CN)NC(=O)[C@@H](NC(=O)[C@H](CCN)NC(=O)c2ccc(C(F)(F)F)c(Cl)c2)[C@@H](C)O)CCNC(=O)[C@H]([C@@H](C)O)NC(=O)[C@H](CCN)NC(=O)[C@H](CCN)NC1=O [Compound 115] (X21-[Dab]T[Dap][Dab][Dab][dL][Abu][Dab][Dab]T; lactam 4-C) | 0.25 (≈ 0.209 µM) | 0.25 (≈ 0.209 µM) | 0.25 (≈ 0.209 µM) | 0.5 (≈ 0.419 µM) | 0.5 (≈ 0.419 µM) | 0.5 (≈ 0.419 µM) | 0.5 (≈ 0.419 µM) | 1 (≈ 0.838 µM) | 1 (≈ 0.838 µM) | 0.5 (≈ 0.419 µM) | 1 (≈ 0.838 µM) | 0.125 (≈ 0.105 µM) | −2.71 | – | – | – | – | – | – | – | –
CC(C)C[C@H]1NC(=O)[C@H](CCN)NC(=O)[C@@H](NC(=O)[C@H](CN)NC(=O)[C@@H](NC(=O)[C@H](CCN)NC(=O)c2cc(Cl)cc(Cl)c2)[C@@H](C)O)CCNC(=O)[C@H]([C@@H](C)O)NC(=O)[C@H](CCN)NC(=O)[C@H](CCN)NC(=O)[C@H](C)NC1=O [Compound 117] ({Benzoyl(3,5-Cl2)}-[Dab]T[Dap][Dab][Dab][dL]A[Dab][Dab]T; lactam 4-C) | – | – | – | – | – | – | – | – | – | – | – | – | −2.99 | 0.25 (≈ 0.218 µM) | 0.25 (≈ 0.218 µM) | 1 (≈ 0.872 µM) | 1 (≈ 0.872 µM) | 0.25 (≈ 0.218 µM) | 1 (≈ 0.872 µM) | 1 (≈ 0.872 µM) | MIC (Pseudomonas aeruginosa; P. aeruginosa ATCC 27853): 0.25 µg/mL (≈ 0.218 µM); Minimum inhibitory concentration, Pa ATCC 27853 (Pseudomonas aeruginosa; [7]): 0.25 µg/mL (≈ 0.218 µM); Minimum inhibitory concentration, Pa FADDI-PA022 (Pseudomonas aeruginosa; [8]): 2 µg/mL (≈ 1.74 µM); Minimum inhibitory concentration, Pa FADDI-PA025 (Pseudomonas aeruginosa; [9]): 2 µg/mL (≈ 1.74 µM); MIC (Klebsiella pneumoniae; K. pneumoniae FADDI-KP032): 0.25 µg/mL (≈ 0.218 µM)
CC(C)C[C@H]1NC(=O)[C@H](CCN)NC(=O)[C@@H](NC(=O)[C@H](CN)NC(=O)[C@@H](NC(=O)[C@H](CCN)NC(=O)c2cc(Cl)cc(Cl)c2)[C@@H](C)O)CCNC(=O)[C@H]([C@@H](C)O)NC(=O)[C@H](CCN)NC(=O)[C@H](CCN)NC(=O)[C@H]([C@@H](C)O)NC1=O [Compound 118] ({Benzoyl(3,5-Cl2)}-[Dab]T[Dap][Dab][Dab][dL]T[Dab][Dab]T; lactam 4-C) | – | – | – | – | – | – | – | – | – | – | – | – | −3.53 | 1 (≈ 0.85 µM) | 0.25 (≈ 0.213 µM) | 0.5 (≈ 0.425 µM) | 2 (≈ 1.7 µM) | >32 | 2 (≈ 1.7 µM) | 1 (≈ 0.85 µM) | MIC (Pseudomonas aeruginosa; P. aeruginosa ATCC 27853): 0.5 µg/mL (≈ 0.425 µM); Minimum inhibitory concentration, Pa ATCC 27853 (Pseudomonas aeruginosa; [7]): 0.5 µg/mL (≈ 0.425 µM); Minimum inhibitory concentration, Pa FADDI-PA022 (Pseudomonas aeruginosa; [8]): 2 µg/mL (≈ 1.7 µM); Minimum inhibitory concentration, Pa FADDI-PA025 (Pseudomonas aeruginosa; [9]): 2 µg/mL (≈ 1.7 µM); MIC (Klebsiella pneumoniae; K. pneumoniae FADDI-KP032): 0.25 µg/mL (≈ 0.213 µM)
